# Laboratory results published in patent EP1056700B1, “MEDICINAL USES OF PHENYLALKANOLS AND DERIVATES” (ZingoTX Pty Ltd, priority 1997, dated 1999).
# “Also recorded” adds a separate entry of the source.
# Key:
# SR Ca^2+-ATPase = target: T1, SR Ca^2+-ATPase (Canis lupus familiaris, UniProt O46674); assay: Sarcoplasmic reticulum Ca^2+-ATPase assay; assay type: biochemical, dog; settings: for SR Ca^2+-ATPase Activity: 0 µM = 100, dog cardiac SR; for SR Ca^2+-ATPase ↑ increase or stimulation: @ 25 µM; for IC50: read-out: SR Ca^2+-ATPase IC50 = conc. for 50% inhibition
# T1 construct: Effect of gingerols and their derivatives on the Ca^2+-ATPase activity of dog cardiac SR; from tissue; host or cells: dog heart (cardiac sarcoplasmic reticulum)
# Method in brief: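 Dog cardiac SR Ca^2+-ATPase activity was measured with 20 mM ATP solution over 30 min at 37°C. Released inorganic phosphate was developed colorimetrically, read at 655 nm and quantified against a Pi standard curve, with controls lacking ATP or calcium. Compounds from 10 mM DMSO stocks were tested in duplicate at ≤2.5% final DMSO.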
# right atrium-vagus rat = assay: Cardiovascular and neuro-effector junction activities: right atrium-vagus, rat; settings: result in words with concentration
# Text: (§1) The cardiotonic action of 1-(4-hydroxy-3-methoxyphenyl)dodecan-3-ol [3.93] was confirmed from independent studies, carried out at our request as part of our agreement with Johnson & Johnson Research Ltd (J&J), by Prof. James Angus from the University of Melbourne. […] A tachycardial effect of the substance on guinea pig atria was, however, observed at significant rate, 50-60% of isoprenaline Emax and the response was not α- or β-adrenoceptor mediated. […] Cardiovascular and neuro-effector junction activities of gingerol analogues
# right atrium rat = assay: Cardiovascular and neuro-effector junction activities: right atrium, rat; settings: result in words with concentration
# Text: as §1
# left atrium rat = assay: Cardiovascular and neuro-effector junction activities: left atrium, rat; settings: result in words with concentration
# Text: as §1
# vas deferens rat = assay: Cardiovascular and neuro-effector junction activities: vas deferens, rat
# Text: as §1
# diaphragm rat = assay: Cardiovascular and neuro-effector junction activities: diaphragm, rat
# Text: as §1
# [1] = system: right atrium-vagus guinea pig; assay: Cardiovascular and neuro-effector junction activities: right atrium-vagus, guinea pig; settings: result in words with concentration
# Text: as §1
# right atrium guinea pig = assay: Cardiovascular and neuro-effector junction activities: right atrium, guinea pig; settings: for right atrium guinea pig: result in words with concentration
# Text: as §1
# left atrium guinea pig = assay: Cardiovascular and neuro-effector junction activities: left atrium, guinea pig; settings: for left atrium guinea pig: result in words with concentration
# Text: as §1
# rat mesenteric artery = assay: Vasodilation on rat mesenteric small arteries
# Text: Small arteries (200-300 µm in diameter) isolated from rat mesentery were precontracted with endothelin prior to addition of the test substances and tested for relaxation.
# Platelet rich plasma = assay: Platelet aggregation: [^3H]-serotonin release from platelet rich plasma, arachidonic acid initiated; assay type: cell-based; settings: Homo sapiens, activation by EC50 concentration of arachidonic acid
# Experimental: Blood was collected from healthy volunteers who had taken no medication in the previous two weeks. The anticoagulant used was 3.8 % trisodium citrate. Platelet rich plasma was prepared and incubated with [^3H]-serotonin. This was followed by addition of gingerol analogues. Platelet activation was initiated using the EC50 concentration for arachidonic acid. The percentage of [^3H]-serotonin release was measured using a liquid scintillation counter. Then, dose-response curves were established and IC50 values were obtained.
# [2] = system: rabbit platelet-rich plasma; assay: Antiplatelet aggregation screen with arachidonic acid in rabbit platelet-rich plasma; assay type: cell-based
# Bleeding time in mice = assay type: in vivo
# NK-1 receptor = target: T2, NK-1 receptor (Cavia porcellus, UniProt P30547); assay: Neurokinin-1 binding with [^3H]Substance P on guinea pig submaxillary membrane
# T2 construct: tested on guinea pig submaxillary membrane; from tissue; host or cells: guinea pig submaxillary membrane
# Experimental: 3-hydroxy-1-(4-hydroxy-3-methoxyphenyl)dodecane [3.93], was tested on guinea pig submaxillary membrane for neurokinin-1 (NK-1) antagonist activity with tritium labelled [^3H]Substance P and found to have relatively potent inhibition of the binding of Substance P to NK-1 receptor. […] It gave approximately 80% inhibition at 30 µM.
# cardiac Purkinje fibres = assay: Cardiac electrophysiology on Purkinje fibres; design: species or system dog
# Experimental: The basic cardiac electrophysiological properties were assessed using cardiac Purkinje fibres obtained from adult mongrel dogs.
# Electrophysiology was carried out on dog heart purkinje fibre to test for potential arrhythmia. […] At high concentration (50 µM), however, [8]-gingerol reduced approximate 80% and 50% of action potential duration at 50% and 90% repolarisations respectively. Whereas the analogue reduced 75% and 30% respectively.
# [3] = result in words with concentration
# T1 sequence (O46674 whole entry): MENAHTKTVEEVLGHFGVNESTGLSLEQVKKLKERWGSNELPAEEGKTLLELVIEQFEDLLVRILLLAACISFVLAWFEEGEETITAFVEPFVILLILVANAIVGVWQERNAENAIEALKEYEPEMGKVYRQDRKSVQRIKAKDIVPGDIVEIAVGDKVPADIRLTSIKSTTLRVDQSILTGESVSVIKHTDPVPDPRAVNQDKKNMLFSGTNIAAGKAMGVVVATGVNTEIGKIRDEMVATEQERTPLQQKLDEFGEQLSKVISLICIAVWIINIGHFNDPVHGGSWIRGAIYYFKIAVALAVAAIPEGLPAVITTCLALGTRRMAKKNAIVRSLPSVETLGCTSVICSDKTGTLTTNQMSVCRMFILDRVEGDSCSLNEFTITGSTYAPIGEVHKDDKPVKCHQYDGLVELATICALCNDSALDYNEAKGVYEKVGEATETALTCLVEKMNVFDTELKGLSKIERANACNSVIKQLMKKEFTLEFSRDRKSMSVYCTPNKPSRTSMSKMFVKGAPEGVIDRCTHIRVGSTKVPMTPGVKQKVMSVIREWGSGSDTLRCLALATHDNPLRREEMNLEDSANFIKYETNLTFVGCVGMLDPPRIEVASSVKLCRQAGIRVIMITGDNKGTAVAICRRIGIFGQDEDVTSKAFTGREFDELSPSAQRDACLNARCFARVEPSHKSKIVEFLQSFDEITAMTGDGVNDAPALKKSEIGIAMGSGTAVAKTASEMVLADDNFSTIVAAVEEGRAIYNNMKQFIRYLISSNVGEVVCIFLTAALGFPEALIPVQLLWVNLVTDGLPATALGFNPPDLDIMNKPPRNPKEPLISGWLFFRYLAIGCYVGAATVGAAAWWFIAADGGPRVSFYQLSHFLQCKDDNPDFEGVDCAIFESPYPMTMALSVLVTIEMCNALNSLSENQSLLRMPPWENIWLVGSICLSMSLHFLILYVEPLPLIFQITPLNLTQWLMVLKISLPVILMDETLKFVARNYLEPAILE
# T2 sequence (P30547 whole entry): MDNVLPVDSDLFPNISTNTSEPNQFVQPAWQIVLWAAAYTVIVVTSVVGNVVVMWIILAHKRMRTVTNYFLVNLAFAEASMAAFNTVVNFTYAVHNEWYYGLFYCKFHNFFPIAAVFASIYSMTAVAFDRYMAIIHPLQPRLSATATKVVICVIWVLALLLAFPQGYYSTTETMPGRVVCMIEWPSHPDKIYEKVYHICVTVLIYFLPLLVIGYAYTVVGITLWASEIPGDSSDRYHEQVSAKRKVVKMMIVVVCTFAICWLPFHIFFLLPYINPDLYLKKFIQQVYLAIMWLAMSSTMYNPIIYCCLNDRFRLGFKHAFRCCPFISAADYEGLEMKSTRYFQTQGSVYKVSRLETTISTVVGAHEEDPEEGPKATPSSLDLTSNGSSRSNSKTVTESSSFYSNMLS
smiles,measurement,setting,value
CCCCCCCCCC(O)CCc1ccc(O)c(OC)c1 (stereo not shown) [1-(4-hydroxy-3-methoxyphenyl)dodecan-3-ol],SR Ca^2+-ATPase Activity,SR Ca^2+-ATPase; 5 µM,102
same,SR Ca^2+-ATPase Activity,SR Ca^2+-ATPase; 10 µM,108
same,SR Ca^2+-ATPase Activity,SR Ca^2+-ATPase; 25 µM,140
same,SR Ca^2+-ATPase Activity,SR Ca^2+-ATPase; 50 µM,101
same,SR Ca^2+-ATPase Activity,SR Ca^2+-ATPase; 100 µM,98
same,SR Ca^2+-ATPase Activity,SR Ca^2+-ATPase; 200 µM,16
same,SR Ca^2+-ATPase ↑ increase or stimulation,SR Ca^2+-ATPase,↑40% @ 25
same,IC50,SR Ca^2+-ATPase,50 to 100 µM
same,right atrium-vagus rat,right atrium-vagus rat,dramatic enhancement n=1 10^-6 - 10^-5 M
same,right atrium rat,right atrium rat,tachycardi a 3x10^-7 - 3x10^-6 M (with propranolo 1 present)
same,left atrium rat,left atrium rat,no change in force 10^-7 - 10^-5 M (n=2)
same,block of ATP or α1-receptors in vas deferens,vas deferens rat,Neither blocked
same,vas deferens rat ↓,vas deferens rat; 10^-5 M (vehicle?),↓30% 10^-5 M (vehicle?)
same,diaphragm rat ↓,diaphragm rat; 10^-5 M (vehicle?),↓10% 10^-5 M (vehicle?)
same,right atrium-vagus guinea pig,[1],no enhancement of vagal slowing 10^-7 - 10^-5 M
same,Emax,"right atrium guinea pig; Cavia porcellus, right atrium guinea pig, 10^-7 - 3x10^-5 M, not blocked by praz., prop., read-out: tachycardia, % of isoprenaline Emax",50 to 60%
same,right atrium guinea pig,right atrium guinea pig,tachycardia 10^-7 - 3x10^-5 M
same,"tachycardia, % of isoprenaline Emax","right atrium guinea pig; right atrium guinea pig, 10^-7 - 3x10^-5 M, not blocked by praz., prop.",60%
same,"inotropic, % isopren. max.","left atrium guinea pig; left atrium guinea pig, 10^-6 - 3x10^-5 M (not in rat)",20%
same,left atrium guinea pig,left atrium guinea pig,inotropic 10^-6 - 3x10^-5 M
same,potency (EC50) for relaxation of the mesenteric artery versus inotropic effect in guinea pig atrium,rat mesenteric artery,100 fold
same,EC50,"rat mesenteric artery; Rattus norvegicus, relaxation of small arteries (200-300 µm) precontracted with endothelin",100 nM
same,relaxation of rat mesenteric artery,rat mesenteric artery; result in words,very potent; also recorded: both enantiomers showed similar potency
same,IC50,Platelet rich plasma,58 ± 1.9 µM
same,platelet function via adenosine diphosphate or thromboxane A2 mechanisms,[2],did not affect
same,antiplatelet aggregation activity compared with the indomethacin reference compound,[2]; arachidonic acid as substrate,three time more potent
same,effect on bleeding time,Bleeding time in mice,little or no effect
same,inhibition at 30 µM,NK-1 receptor,~80%
CCCCCCCC(O)CC(=O)c1ccc(O)c(OC)c1 (stereo not shown) [3-hydroxy-1-(4-hydroxy-3-methoxyphenyl)decan-1-one],SR Ca^2+-ATPase Activity,SR Ca^2+-ATPase; 1 µM,104
same,SR Ca^2+-ATPase Activity,SR Ca^2+-ATPase; 5 µM,152
same,SR Ca^2+-ATPase Activity,SR Ca^2+-ATPase; 10 µM,174
same,SR Ca^2+-ATPase Activity,SR Ca^2+-ATPase; 25 µM,195
same,SR Ca^2+-ATPase Activity,SR Ca^2+-ATPase; 50 µM,180
same,SR Ca^2+-ATPase Activity,SR Ca^2+-ATPase; 100 µM,222
same,SR Ca^2+-ATPase ↑ increase or stimulation,SR Ca^2+-ATPase; listed as 3-hydroxy-1-(4-hydroxy-3-methoxyphenyl) decan-1-one (3.92),↑95% @ 25
same,SR Ca^2+-ATPase ↑ increase or stimulation,SR Ca^2+-ATPase; listed as 3.92,95%
same,stimulatory activity towards dog heart SR Ca^2+-ATPase,SR Ca^2+-ATPase; at 3 µM,200%
same,IC50,SR Ca^2+-ATPase,~50 µM
same,right atrium-vagus rat,right atrium-vagus rat,some enhanced slowing 10^-6 - 10^-5 M
same,right atrium rat,right atrium rat,no change basal rate 10^-7 - 10^-5 M
same,left atrium rat,left atrium rat,no change 10^-7 - 3x10^-5 M (sharp fall 10^-4 M)
same,block of ATP or α1-receptors in vas deferens,vas deferens rat,Neither blocked
same,vas deferens rat,vas deferens rat; [3],no effect 10^-4 M
same,diaphragm rat ↓,diaphragm rat; 3x10^-5 M,↓10% 3x10^-5 M
same,diaphragm rat,diaphragm rat; [3],no effect 10^-5 M
same,right atrium-vagus guinea pig,[1],weak? enhanced slowing 10^-7 - 10^-6 M
same,right atrium guinea pig,right atrium guinea pig,no change basal rate 10^-7 - 10^-5 M
same,left atrium guinea pig,left atrium guinea pig,• no inotropi sm
same,"effect on isoprenaline response, left atrium guinea pig",left atrium guinea pig; up to 30 µM,• no effect on isoprenali ne response (up to 30 µM)
same,Action Potential Amplitude,cardiac Purkinje fibres; 5 µM,125±3 mV
same,Action Potential Duration 50% repolarisation,cardiac Purkinje fibres; 5 µM,176 ± 17 ms
same,Action Potential Duration 90% repolarisation,cardiac Purkinje fibres; 5 µM,270 ± 26 ms
same,Maximum rate of depolarisation,cardiac Purkinje fibres; 5 µM,524±66 V/s
same,Action Potential Amplitude,cardiac Purkinje fibres; 10 µM,127±4 mV
same,Action Potential Duration 50% repolarisation,cardiac Purkinje fibres; 10 µM,157 ± 23 ms
same,Action Potential Duration 90% repolarisation,cardiac Purkinje fibres; 10 µM,257 ± 25 ms
same,Maximum rate of depolarisation,cardiac Purkinje fibres; 10 µM,527±78 V/s
same,Action Potential Amplitude,cardiac Purkinje fibres; 20 µM,123±6 mV
same,Action Potential Duration 50% repolarisation,cardiac Purkinje fibres; 20 µM,124 ± 16 ms
same,Action Potential Duration 90% repolarisation,cardiac Purkinje fibres; 20 µM,245 ± 17 ms
same,Maximum rate of depolarisation,cardiac Purkinje fibres; 20 µM,521±87 V/s
same,Action Potential Amplitude,cardiac Purkinje fibres; 30 µM,115±7 mV
same,Action Potential Duration 50% repolarisation,cardiac Purkinje fibres; 30 µM,94 ± 10 ms
same,Action Potential Duration 90% repolarisation,cardiac Purkinje fibres; 30 µM,212 ± 21 ms
same,Maximum rate of depolarisation,cardiac Purkinje fibres; 30 µM,423±45 V/s
same,Action Potential Amplitude,cardiac Purkinje fibres; 40 µM,117±7 mV
same,Action Potential Duration 50% repolarisation,cardiac Purkinje fibres; 40 µM,81 ± 10 ms
same,Action Potential Duration 90% repolarisation,cardiac Purkinje fibres; 40 µM,201 ± 13 ms
same,Maximum rate of depolarisation,cardiac Purkinje fibres; 40 µM,442±61 V/s
same,Action Potential Amplitude,cardiac Purkinje fibres; 50 µM,110±9 mV
same,Action Potential Duration 50% repolarisation,cardiac Purkinje fibres; 50 µM,55 ± 4 ms
same,Action Potential Duration 90% repolarisation,cardiac Purkinje fibres; 50 µM,188 ± 19 ms
same,Maximum rate of depolarisation,cardiac Purkinje fibres; 50 µM,363±74 V/s
same,reduction of action potential duration at 50% repolarisation,cardiac Purkinje fibres; 50 µM,75%
same,reduction of action potential duration at 90% repolarisation,cardiac Purkinje fibres; 50 µM,30%
same,"effect on rate of depolarization, amplitude of action potential and duration of action potential at 50% and 90% repolarization","cardiac Purkinje fibres; up to 10 µM, listed as 3.92",insignificant effect; also recorded: only a small effect
